# Test results reported in patent publication EP4741383A1, “COMPOUND AND USE THEREOF AS ANTI-CANCER DRUG” (Tyligand Bioscience (Shanghai) Limited, priority 2023, dated 2025).
# Tested on: THP-1
# Assay: CellTiter-Glo cell proliferation inhibition, THP-1
# Assay type: cell-based
# Settings: Homo sapiens; THP-1 (leukemia cell line), 72 hours; read-out: Example IC50 (µM) THP-1
# Source text: This experiment used the CellTiter-Glo® Luminescent Cell Viability Assay kit from Promega to evaluate the inhibitory activity of the disclosed compounds on the proliferation of the following cell lines: 4T1 (mouse breast cancer cell line), A20 (mouse B-cell lymphoma cell line), A2780 (human ovarian cancer cell line), AsPC-1 (pancreatic cancer cell line), B16F10 (mouse melanoma cell line), BT549 (human breast cancer cell line), CT26 (mouse colon cancer cell line), EMT6 (mouse breast cancer cell line), HCT116 (colorectal cancer cell line), Jurket (acute leukemia cell line), KP-4 (pancreatic cancer cell line), LL/2 (mouse lung cancer cell line), MCF7 (breast cancer cell line), […] NCI-H358 (lung cancer cell line), NCI-H727 (gastric cancer cell line), NCI-1944 (lung cancer cell line), Pan 04.03 (pancreatic cancer cell line), SK-BR-3 (breast cancer cell line), THP-1 (leukemia cell line), TOV21G (ovarian cancer cell line), U87MG (glioblastoma cell line), and UM-UC-a (bladder cancer cell line).
# All cell lines were purchased from Nanjing Kebai Biotechnology Co., Ltd. The following materials were also used in the experiment: RPMI-1640 media (HyClone, catalog number #SH30022.01), McCoy's 5A media (Thermo Fisher, catalog number #16600-082), MCDB 105 media (Sigma, catalog number #117-500), Medium 199 (Thermo Fisher, catalog number #11150-059), MEM media (Thermo Fisher, catalog number #11095-080), DMEM media (HyClone, catalog number #SH30027.01), fetal bovine serum (FBS) (ExCell, catalog number # M4530), Sodium Pyruvate (100Mm) (Thermo Fisher, catalog number #11360-070), and MEM NEAA (100X) (Thermo Fisher). […]
# Cells were cultured according to the instructions provided by the cell supplier (Nanjing Kebai Biotechnology Co., Ltd.). […] Suspension or adherent cells were collected, and cell viability was determined using the trypan blue exclusion method, ensuring that cell viability was above 90%. […]
row,IC50 [µM],SMILES
1,0.086,O=C(Nc1ccc(-c2csc(CO)c2)cc1)C(=O)Nc1ccc(-c2cc3cc(F)c(-c4nnn[nH]4)cc3n2C2CCC2)cc1 [Example 1]
2,0.063,CC1(n2c(-c3ccc(NC(=O)C(=O)Nc4ccc(N5CCC6(CCOC6)CC5)cc4)cc3)cc3cc(F)c(-c4nnn[nH]4)cc32)CCC1 [Example 68]
3,0.07,O=C(Nc1ccc(-c2cc3cc(F)c(-c4nnn[nH]4)cc3n2C2CCC2)cc1)C(=O)Nc1ccc(N2CCC3(CCC(O)C3)CC2)cc1 (stereo not drawn) [Example 100]
